Experiment: gradient 5% acetonitrile 3 min, to 50% in 2 min, to 85% in 15 min, held 3 min, 100 µL/min
Settings: column: Zorbax Extend-C18 2.1 x 50 mm; eluents: water / acetonitrile, 0.1% formic acid
Procedure, shortened: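 Pure standards were run in mixtures of ~100 molecules by HPLC coupled to a quadrupole time-of-flight mass spectrometer. The column was a Zorbax Extend-C18 (2.1 × 50 mm, 1.8 μm) at 100 μL/min, with water and acetonitrile each containing 0.1% formic acid, in positive and negative ionization mode. Dead and dwell volumes were 40 μL and 900 μL. Retention time was taken from computationally picked adduct peaks, each manually inspected, with data collected over 3 months.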

SMILES	RP-LC retention time [s]
CC1CCN(C(=O)c2cn(-c3ccc(-c4nc(C(C)(C)C)no4)cn3)cn2)CC1	1130
Cn1c(=O)n(CC(=O)N2CCOCC2)c(=O)c2cnc(-c3ccc(Cl)cc3)nc21	859
Cc1ccc(N2CCC(NC(=O)NC(C)C)C2=O)cc1C (stereo unspecified)	740
CC1CCN(C(=O)C2=NNc3ccccc3S2(=O)=O)CC1	740
CCOC(=O)C1CCN(C(=O)c2cc(-c3ccc(C)c(C)c3)[nH]c2C)CC1	973
CCc1nc(-c2cc(S(=O)(=O)Nc3ccccc3Br)c(C)s2)cs1	1130
CCCN(C(=O)c1ccco1)c1nc(-c2ccccc2)cs1	1250
CC(C)(C)C(=O)N1CCC(C(=O)Nc2nnc(CCCc3ccccc3)s2)CC1	893
O=C(COc1ccccc1)N1CCN(Cc2ccccc2)c2ncccc21	884
Cc1ccc(CNC(=O)CNC(=O)N2CCSc3nc(C)cc(C)c32)cc1	670
Cc1ccc(C)c(S(=O)(=O)NCCn2c(C)cnc2C2CCC2)c1	656
CCOC(=O)CNC(=O)N(C)CCc1noc(-c2ccc(Cl)cc2)n1	789
Cc1cc(C)n2c(Nc3ccc(Cl)cc3)c(-c3ccc(O)cc3)nc2n1	707
Cc1cc(OC(C)C(=O)N[C@@H](C)C(=O)O)c2c3c(c(=O)oc2c1)CCCC3 (stereo partly specified)	767
CCc1ccc(C(=O)N2CCN(C(=O)c3nnn4c3COC(c3ccc(C)cc3)C4)CC2)cc1 (stereo unspecified)	1000
CC1=C(C(=O)O)N2C(=O)C(NC(=O)[C@H](N)c3ccccc3)[C@H]2SC1 (stereo partly specified)	627
CCOC(=O)c1cnc2nc(C)ccc2c1Nc1ccc(Cl)cc1F	758
O=C(CN1C(=O)c2ccccc2C1=O)Nc1cccc(-c2cn3c(n2)SCC3)c1	581
COc1ccc(-c2csc(NC(=O)CSc3nc4c(cc3C#N)CCC4)n2)cc1	1120
COc1ccc(CN2CC[C@@H]3CN(S(C)(=O)=O)[C@@H]3C2)cc1C	617
CNS(=O)(=O)c1ccc(Cl)c(-c2nnc(-c3ccccc3)o2)c1	870
CCOc1ccc2c(n1)CCN(C(=O)Nc1cc(C)ccc1C)C2	862
Cc1c(Cl)cccc1NC(=O)Cn1ccc2sccc2c1=O	764

SMILES	RP-LC retention time [s]
Cc1ccc(C)c(CNC(=O)CCNc2cnc3cnccn23)c1	605
CC(C)CNC(=O)N1CCn2nnc(CCC(=O)N3CCOCC3)c2C1	604
COc1ccccc1-c1ccc(N2CCC(C(=O)NN3CCOCC3)CC2)nn1	530
N[C@@H]1CCCCN(c2c(F)cc3c(=O)c(C(=O)O)cn(C4CC4)c3c2Cl)C1	707
CN1CCN(CCCNC(=O)c2nccnc2NC(=O)c2ccccc2)CC1	557
CC(NC(=O)COc1ccccc1)C(=O)N1CCN(c2ccccn2)CC1 (stereo unspecified)	602
CCOc1ccc(-c2ccc(=O)n(CCc3nc(-c4ccccc4)no3)n2)cc1	1000
O=C(c1ccsc1)N1CCCCC1c1nncn1Cc1ccccc1 (stereo unspecified)	726
COCCn1cc2c3c(cccc31)CN(C(=O)Nc1ccc(OC)c(F)c1)CC2	891
COc1ccc(NC(=O)C2CC2)c2ccccc12	729
O=c1c2nc(-c3ccc(F)cc3)cn2ccn1-c1ccc2c(c1)CCC2	945
Cn1c(=O)c2c(ncn2CCCNCC(O)c2cc(O)cc(O)c2)n(C)c1=O (stereo unspecified)	952
Cc1nc(C)c(C(=O)Nc2nc(-c3cccc(Cl)c3)c(C)s2)s1	1070
CCN1C(=O)C2(CCN(C(=O)c3ccc(OC(C)C)cc3)CC2)c2ccccc21	1020
Cc1nnc(C2CC3(CCN(CC(C)C)CC3)CN2CCc2ccccc2)o1 (stereo unspecified)	612
O=C1CC(c2ccc(O)cc2)c2c(c(C(=O)O)cn2-c2cccc(C(F)(F)F)c2)N1 (stereo unspecified)	746
O=C(CCC1CCCC1)Nc1ccc(N2CCN(C3CCCC3)C2=O)nc1	884
O=C(c1ccc(Cl)s1)N1CCC(N(C(=O)C2CC2)C2CCOCC2)CC1	773
CSc1ccc(-c2nc3cnccn3c2Nc2ccc(F)cc2)cc1	927
O=C(NC1CCN(c2cc(-c3ccc(Cl)cc3)[nH]n2)C1)c1ccc(Br)cc1 (stereo unspecified)	913
Cc1cnc(C2CCOCC2)n1CC1CN(C(=O)C2CC=CC2)C1	568
COC(=O)c1c(C)[nH]c(C(=O)N2CCCC(C(=O)NCc3ccc(Cl)cc3)C2)c1C (stereo unspecified)	809
CCOC(=O)Cc1csc(NC(=O)c2cc(=O)c(OCc3ccccc3)c[nH]2)n1	797

SMILES	RP-LC retention time [s]
Cc1c(-c2noc(-c3ccc(F)cc3)n2)nnn1-c1ccccc1	994
O=C(CSC1CCCC1)N1CCCC(c2nnc(-c3ccccc3F)s2)C1 (stereo unspecified)	994
Cn1cc(CCNC(=O)Cc2ccc(Cl)cc2)c2cccnc21	696
Cn1c(=O)n(C2CCN(Cc3ccsc3)CC2)c2ncncc21	552
O=C(c1ccccc1OCC1CCCNC1)N1CCOCC1 (stereo unspecified)	576
COc1ccc2c(c1[N+](=O)[O-])CC[C@@H]1[C@@H]2CC[C@]2(C)C(=O)CC[C@@H]12	1050
COc1ccc(N2CCN(C(=O)CN3C(=O)CCc4cc(Br)ccc43)CC2)cc1	829
Cc1ccc(S(=O)(=O)N2CCCCCC2)cc1-c1nnc(-c2ccccc2)o1	1190
Cc1ccc(C2NC(=O)N(C)C3=C2C(=O)N(C(CC(C)C)C(=O)N2CCOCC2)C3)c(C)c1 (stereo unspecified)	708
CSc1cccc(NC(=O)N2CCCC2c2nc(-c3ccc(F)cc3)no2)c1 (stereo unspecified)	1040
Cc1cccc(-c2noc(CN3C(=O)COc4cc(C)ccc43)n2)c1	1110
O=C(NCc1ccco1)C1CCN(c2nc3cccnc3s2)CC1	683
CNC(=O)c1noc([C@@H]2CC(F)(F)CN2Cc2ccco2)n1	732
CCOc1ccc(-c2csc(Cc3nc(-c4ccccc4)no3)n2)cc1	1230
COc1ccccc1-c1nnc(-c2cccc(S(=O)(=O)N(C)C)c2)o1	840
COc1ccc(C(=O)Nc2c(-c3ccccc3)nc3ccccn23)cc1OC	608
Cc1ccccc1C(=O)NCCN1CCN(c2ccc(Cl)cc2)CC1	610
CN(C)c1ccc(C(CNC(=O)c2ccc(Br)o2)N2CCCC2)cc1 (stereo unspecified)	572
CC(C)c1cc(C(=O)Nc2cccc(C(F)(F)F)c2)nn1C1CCS(=O)(=O)C1 (stereo unspecified)	1000
Cn1c(CNC(=O)C2CCC2)nc2c1CN(C(=O)c1ccc(C(F)(F)F)s1)CC2	656
CCCS(=O)(=O)c1nc2ccc(NS(=O)(=O)c3ccc(OC)c(OC)c3)cc2s1	853
Fc1cccc(Cc2nc(-c3cccc(-c4ccn[nH]4)c3)no2)c1	915
N#CC1=CN(c2ccc3c(c2)CCC3)c2ccccc2S1(=O)=O	1010

SMILES	RP-LC retention time [s]
O=C(c1ccsc1)N(CCc1cccs1)C1CC1	853
COc1ccc(OC)c(NC(=O)Cn2nc3cc(-c4ccccc4)nc(C)n3c2=O)c1	965
CCCNC(=O)c1ccc2nc(CCc3ccc(NC(=O)CCC)cc3)[nH]c2c1	617
O=C(c1ccoc1)N1CCC(c2noc(-c3ccncc3)n2)C1 (stereo unspecified)	665
COc1ccc(OC)c(CCNc2nc(-c3ccc(OC)c(OC)c3)no2)c1	918
COc1ccc(C)cc1NC(=O)N1CCCC1c1nc(-c2ccccc2OC)no1 (stereo unspecified)	940
Cc1cccc2c(C(=O)NC3CC3)cc(=O)[nH]c12	614
CC(C)OCCCNC(=O)c1cc2n(n1)CCCN(Cc1ccc(F)cc1)C2=O	795
Cc1nnc(-c2cn(CC(=O)NC3CCCCCCC3)c3ccccc23)o1	903
CCCCn1c(=O)c2ccccc2n(Cc2nc(-c3ccc(F)cc3)no2)c1=O	1170
COCC(=O)N[C@@H]1CN(C(=O)C2CC=CC2)CC[C@@H]1CO	578
Cc1cccc(NC(=O)N2C[C@@H](F)C[C@H]2C(=O)N2CCc3ccccc3C2)c1C	811
CC(NC(=O)Cn1cnc(-c2noc(-c3ccncc3)n2)c1)c1ccccc1 (stereo unspecified)	678
COc1ccc(N2CCCS2(=O)=O)cc1NC(=O)c1ccc(Br)o1	767
Cn1c(C(=O)N2CCCC(C(=O)N3CCN(c4ccccc4)CC3)C2)cc2sccc21 (stereo unspecified)	892
CCNC(=O)Nc1ccc(OCC(=O)NC(C)c2cccc(OC)c2)nc1 (stereo unspecified)	686
O=C(NCc1ccc(Br)cc1)C1CCCN(C(=O)c2cc(-c3ccncc3)n[nH]2)C1 (stereo unspecified)	623
O=C(NCc1csc(-c2ccccc2)n1)C1CCN(C(=O)c2ccc(F)c(F)c2)CC1	814
CC(=O)Nc1ccc(NC(=O)CSc2ccc(N3CCCC(C(=O)NC4CC4)C3)nn2)cc1 (stereo unspecified)	584
COc1ccc(N2CC(NC(=O)c3ccc(S(=O)(=O)N(C)C)cc3)CC2=O)cc1OC (stereo unspecified)	634
N#Cc1ccc(-c2nc(C3CC(=O)N(c4ccc(Cl)cc4)C3)no2)cc1 (stereo unspecified)	996
CC(C)n1cnc(S(=O)(=O)N2CCC(C(=O)NCc3ccc(F)cc3)CC2)c1	721

Source: the METLIN SMRT retention time set (Domingo-Almenara et al. 2019)
